The text below walks through data of patent US12685777B2, “Compositions, systems, and methods for modulating a target gene” (The Board of Trustees of the Leland Stanford Junior …, priority 2022, dated 2026).

In one data set the target is T1, BCL6 and BRD4 (Homo sapiens, UniProt O60885+P41182).
T1 construct: N-terminal fusion of HaloTag to full-length BCL6; N-terminal fusion of nanoLuc (nano-luciferase) to full-length BRD4 (Promega #N169A); host or cells: HEK293T
Nature of the data set: BCL6-BRD4 nanoBRET assay in HEK cells. The data set is classed as cell-based. Particulars: C- and N-terminally labeled BCL6 with N-terminally labeled BRD4, HEK cells. The protocol: The conditions and methods for nanoBRET, a well-recognized assay of in vivo target engagement, are described in PMID 26006698.
A 12-point dose-response curve with 3 technical replicates for each TCIP was carried out and corrected BRET ratios were calculated according to manufacturer assay protocol (Promega #TM439). Data was fit using the R package drc using the four-parameter log-logistic function.

Data set [1] relates to primary human fibroblasts. Put plainly: Cell viability of primary human fibroblasts. It counts as cell-based. Particulars: 72 hours, read-out: EC50 of killing of fibroblasts. As to the method: (§1) Lymphoma and leukemia cells were cultured in RPMI-1640 (ATCC 30-2001)+10% FBS with antibiotics (100× PenStrep GIBCO #15140122). Primary human fibroblasts were obtained from ATCC (#CRL2522), cultured in DMEM+10% FBS with antibiotics and used at passages 3-5. Primary human tonsillar lymphocytes were a kind gift from M. M. Davis. Cells were routinely checked for mycoplasma and immediately checked upon suspicion. No cultures tested positive.
(§2) 30,000 cells were plated in 100 μL media per well of a 96 well plate and treated with drug for indicated times and doses. A resazurin-based indicator of cell health (PrestoBlue, ThermoFisher #P50200) was added for 1.5 hours after which the fluorescence ratio at 560/590 nm was recorded. The background fluorescence was subtracted and the signal was normalized to DMSO-treated cells. EC50 measurements on cell lines were done with 4 biological repeats by separate cell passages maintained by 3 independent investigators. Fit of dose-response curves to data and statistical analysis was performed using drc package in R using the four-parameter log-logistic function.
(§3) After treatment, mouse tissue was harvested for RNA-seq and histology. […] Serum concentrations after 8 hours were -100 to 400-fold higher than therapeutic doses (FIG. 37, Panel C).

Data set [2] deals with primary human tonsillar lymphocytes. Nature of the data set: Cell viability of primary human tonsillar lymphocytes. It counts as cell-based. Particulars: 72 hours, read-out: EC50 of killing of lymphocytes. As to the method:
as §1, §2, §3

Another data set deals with BCL6 reporter. Nature of the data set: BCL6 reporter assay (GFP) in KARPAS422 cells. It counts as cell-based, human. Particulars: KARPAS422, 8 hours. As to the method:
KARPAS422 cells were lentivirally transduced with a construct containing the reporter. […] Cells were washed in 2.5% FBS/PBS, 1:250 v/v of 7-AAD was added to distinguish live from dead cells, and harvested for flow cytometry on a BD Accuri. The GFP-positive gate were drawn off non-transduced cells and normalized to cells treated with DMSO.
On the technique in general: A reporter such as luciferase makes a cellular process visible.

The subject of a further data set is BCL6 mRNA. Put plainly: RT-qPCR of BCL6 isoforms. The data set is classed as cell-based, human. Particulars: 10 nM. As to the method: 12. RNA Extraction, qPCR, and Sequencing Library Preparation Cells were plated at 1 M/mL and harvested in TRIsure (Bioline #38033). RNA was extracted using Direct-zol RNA MicroPrep columns (Zymo #R^2062) treated with DNAseI. cDNA was prepared for RT-qPCR using the SensiFAST cDNA preparation kit according to manufacturer instructions (Bioline #65054). 1 μL of cDNA was used per RT-qPCR reaction prepared with SYBR Lo-ROX (Bioline #94020). For sequencing library preparation, polyA-containing transcripts were enriched for (NEB #E7490S) and prepared into paired-end libraries (NEB #E7760S). Libraries were sequenced on an Illumina NovaSeq (Novogene). 13. Western Blots
Thus, TCIPs can rewire a repressive negative feedback pathway into a positive feedback pathway, amplifying the potency of the molecule in killing cancer cells (model in FIG. 40, Panel D).

A short description of data set [3]: Mouse tolerability and pharmacokinetic study. The data set is classed as in vivo. The protocol:
Vehicle was the same formulation (5/5/80 DMSO/Tween-80/Saline). The formulation was checked to be a clear solution and after administration, the animal was put back in its cage. For PK properties, plasma levels were measured at 0, 5, 15, 30, 60, 120, 240, 360, and 480 mins after drug administration. For tolerability work, bodyweights and observation of animal health were recorded each day through 5 days of dosing once daily. After 5 days, tissues were collected 8 hours after the last drug administration and split into one part for RNA-seq, homogenized in TRIzoI (Thermo #15596026), another part for histology, snap-frozen, and another part for measurement of drug levels where molar concentrations were recorded with the assumption of 1 g tissue ~1 mL. FFPE blocks (on snap-frozen tissue) and H & E staining were done by the Stanford Histology/Pathology Service Core, by Prof. Hannes Vogel, MD and Pauline Chu.
After treatment, mouse tissue was harvested for RNA-seq and histology.

For the next data set, the system named is OCILY19. Put plainly: Cell viability of OCILY19 DLBCL cells. The data set is classed as cell-based. As to the method: as §2
The level of expression of BCOR, NCOR and SMRT, which engage PRC and HDACs to produce epigenetic suppression of target genes varied among the cell lines and could also contribute to the variation in sensitivity. […] Among the cell lines tested there was no evidence that killing required TP53, nor was there evidence of repression of killing by endogenous BCL2 levels (FIG. 28, Panel B).

The mark [4] stands for this setting: C57BL/6 mice, 10 mg/kg IP once daily for 5 days.
Setting [5] is: RNA-seq, 10 mg/kg IP q.d. 5 days.

Molecules are shown by their SMILES.

`CNC(=O)COc1cc2cc(Nc3nc(N4CCC(C(=O)NCCCCCCCNC(=O)C[C@@H]5N=C(c6ccc(Cl)cc6)c6c(sc(C)c6C)-n6c(C)nnc65)CC4)ncc3Cl)cc(OC)c2n(C)c1=O` [JWZ-7-7, (S)-1-(5-chloro-4-((8-methoxy-1-methyl-3-(2-(methylamino)-2-oxoethoxy)-2-oxo-1,2-dihydroquinolin-6-yl)amino)pyrimidin-2-yl)-N-(7-(2-(4-(4-chlorophenyl)-2,3,9-trimethyl-6H-thieno[3,2-f][1,2,4]triazolo[4,3-a][1,4]diazepin-6-yl)acetamido)heptyl)piperidine-4-carboxamide]: the “nanoBRET signal of proximity” value at BCL6 and BRD4 is listed as “generated a specific signal of proximity”.
For the compound `CNC(=O)COc1cc2cc(Nc3nc(N4CCC(C(=O)NCCCCCCCNC(=O)C[C@@H]5N=C(c6ccc(Cl)cc6)c6c(sc(C)c6C)-n6c(C)nnc65)CC4)ncc3Cl)cc(OC)c2n(C)c1=O` [TCIP1], the EC50 in data set [1] is roughly 470 nM. Further, in data set [2], the EC50 amounted to 210 nM. The “Activation of BCL6 reporter” value in the data set with BCL6 reporter is “about 25 fold”. Moreover, the EC50 in the data set with BCL6 reporter (read-out: EC50 of BCL6 reporter activation) came out at 5 nM. For the same compound, the “Time to upregulation of the long isoform of BCL6 mRNA” value with BCL6 mRNA lay in the range of 1 to 2 h. In addition, in data set [3] (setting [4]), the Body weight change entry is reported as “no significant changes in mouse body weight”; the “H & E staining and examination of tissue” value was “did not reveal noticeable abnormalities”; the Tolerability entry is listed as “well-tolerated with no adverse effects noticed”. In data set [3] (setting [5]), the “Genes downregulated in the liver” value was 167 genes, the “Genes downregulated in the lung” value came out at 204 genes, the “Genes downregulated in the spleen” value is 2,471 genes and the “Genes upregulated in the liver” value is 255 genes. Also, in data set [3] (setting [5]), the “Genes upregulated in the lung” value was determined as 301 genes and the “Genes upregulated in the spleen” value is on record as 2,785 genes. Moreover, the “Response of a DLBCL line with no detectable BCL6” value with OCILY19 was “little or no response”.

Usually EC50 stands for the concentration giving half of the maximal effect.
